# Reference: article PMC4120670 (Kidney International, 2014)
# Columns and labels:
# OAT2 = biological target: T1, OAT2 (Homo sapiens, UniProt Q9Y694); experiment: Inhibition of OAT2 transport of 3′,5′-cyclic GMP; assay type: cell-based
# T1 sequence (Q9Y694 1-548): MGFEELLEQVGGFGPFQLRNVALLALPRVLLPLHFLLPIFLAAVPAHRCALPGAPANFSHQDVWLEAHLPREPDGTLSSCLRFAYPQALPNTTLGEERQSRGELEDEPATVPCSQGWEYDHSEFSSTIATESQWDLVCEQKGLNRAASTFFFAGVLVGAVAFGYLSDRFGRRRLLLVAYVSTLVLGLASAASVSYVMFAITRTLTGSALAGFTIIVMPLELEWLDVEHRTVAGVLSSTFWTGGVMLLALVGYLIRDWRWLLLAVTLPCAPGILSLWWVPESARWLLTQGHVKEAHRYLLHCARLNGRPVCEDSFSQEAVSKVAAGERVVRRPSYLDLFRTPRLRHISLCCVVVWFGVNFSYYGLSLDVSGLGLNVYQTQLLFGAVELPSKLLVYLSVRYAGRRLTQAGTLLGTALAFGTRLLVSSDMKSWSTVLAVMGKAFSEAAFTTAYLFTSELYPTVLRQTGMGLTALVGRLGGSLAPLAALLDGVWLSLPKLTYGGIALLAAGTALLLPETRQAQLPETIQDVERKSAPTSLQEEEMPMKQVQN
# OCT2 [1] = biological target: T2, OCT2 (Homo sapiens, UniProt O15244); experiment: Inhibition of OCT2 transport of tetraethylammonium; assay type: cell-based
# T2 sequence (O15244 1-555): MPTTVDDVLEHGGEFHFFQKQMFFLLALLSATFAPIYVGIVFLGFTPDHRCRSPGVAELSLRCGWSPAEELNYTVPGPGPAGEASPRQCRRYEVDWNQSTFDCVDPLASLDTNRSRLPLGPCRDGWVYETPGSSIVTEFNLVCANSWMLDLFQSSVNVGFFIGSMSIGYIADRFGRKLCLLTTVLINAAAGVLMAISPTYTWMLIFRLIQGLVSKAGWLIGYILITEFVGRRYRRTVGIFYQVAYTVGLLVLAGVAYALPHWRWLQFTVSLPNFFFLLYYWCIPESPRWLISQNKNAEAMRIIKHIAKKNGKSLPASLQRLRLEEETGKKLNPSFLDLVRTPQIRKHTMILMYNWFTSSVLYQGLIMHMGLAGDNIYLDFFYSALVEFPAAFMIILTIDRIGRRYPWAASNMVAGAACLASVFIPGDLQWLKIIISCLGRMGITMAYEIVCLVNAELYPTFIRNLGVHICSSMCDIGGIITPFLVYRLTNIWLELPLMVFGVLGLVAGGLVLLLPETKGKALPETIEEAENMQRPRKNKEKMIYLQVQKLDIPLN
# OCT3 = biological target: T3, OCT3 (Homo sapiens, UniProt O75751); experiment: Inhibition of OCT3 transport of 1-methyl-4-phenylpyridinium; assay type: cell-based; settings: for Concentration-dependent inhibition of OCT3-dependent transport: model substrate, curve could not be generated
# T3 sequence (O75751 1-556): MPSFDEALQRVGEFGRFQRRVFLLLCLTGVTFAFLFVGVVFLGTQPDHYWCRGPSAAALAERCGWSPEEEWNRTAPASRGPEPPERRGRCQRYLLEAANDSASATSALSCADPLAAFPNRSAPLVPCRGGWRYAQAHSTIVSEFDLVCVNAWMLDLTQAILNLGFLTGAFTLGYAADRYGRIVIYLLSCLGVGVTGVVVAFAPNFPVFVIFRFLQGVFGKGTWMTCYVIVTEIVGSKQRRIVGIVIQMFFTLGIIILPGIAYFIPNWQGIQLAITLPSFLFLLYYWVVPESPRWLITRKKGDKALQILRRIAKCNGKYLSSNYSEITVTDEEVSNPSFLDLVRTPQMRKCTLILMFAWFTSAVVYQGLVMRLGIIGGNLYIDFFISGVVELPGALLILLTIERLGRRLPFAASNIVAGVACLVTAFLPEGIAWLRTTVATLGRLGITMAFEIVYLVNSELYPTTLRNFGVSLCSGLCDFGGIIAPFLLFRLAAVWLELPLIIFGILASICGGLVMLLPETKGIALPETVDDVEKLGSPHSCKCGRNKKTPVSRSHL
# MATE1 [2] = biological target: T4, MATE1 (Homo sapiens, UniProt Q96FL8); experiment: Inhibition of MATE1 transport of tetraethylammonium; assay type: cell-based
# T4 sequence (Q96FL8 1-570): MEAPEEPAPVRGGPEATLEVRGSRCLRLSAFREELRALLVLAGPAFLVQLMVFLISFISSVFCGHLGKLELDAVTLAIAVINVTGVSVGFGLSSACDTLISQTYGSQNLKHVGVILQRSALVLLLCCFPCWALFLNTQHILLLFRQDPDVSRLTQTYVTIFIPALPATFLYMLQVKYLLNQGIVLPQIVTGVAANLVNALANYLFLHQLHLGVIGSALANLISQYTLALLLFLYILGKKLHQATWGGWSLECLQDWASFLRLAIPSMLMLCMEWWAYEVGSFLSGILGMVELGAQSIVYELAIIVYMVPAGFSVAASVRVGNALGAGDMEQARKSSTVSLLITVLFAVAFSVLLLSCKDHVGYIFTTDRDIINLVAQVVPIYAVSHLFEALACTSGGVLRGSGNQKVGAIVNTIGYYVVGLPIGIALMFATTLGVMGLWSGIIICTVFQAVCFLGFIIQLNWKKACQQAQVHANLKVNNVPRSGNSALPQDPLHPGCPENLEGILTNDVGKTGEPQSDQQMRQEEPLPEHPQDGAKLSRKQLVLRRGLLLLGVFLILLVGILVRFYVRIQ
# MATE2-K [3] = biological target: MATE2-K (Homo sapiens, UniProt Q86VL8); experiment: Inhibition of MATE2-K transport of tetraethylammonium; assay type: cell-based
# MATE1 [4] = biological target: T4, MATE1; experiment: Inhibition of MATE1-mediated creatinine transport; assay type: cell-based
# OCT2 [5] = biological target: T2, OCT2; experiment: Cobicistat uptake in MDCKII cells transfected with OCT2; assay type: cell-based; settings: cobicistat 1 μmol/l; vs nontransfected MDCKII cells; 5% bovine serum albumin
# [6] = system: human primary proximal tubule cells; experiment: Cobicistat uptake in fresh isolated primary proximal tubule cells; assay type: cell-based; settings: cobicistat 1 μmol/l; cimetidine 1500 μmol/l or probenecid 90 μmol/l
# OAT3 = biological target: T5, OAT3 (Homo sapiens, UniProt Q8TCC7); settings: cobicistat 1 μmol/l; HEK293; diclofenac or probenecid 90 μmol/l
# T5 sequence (Q8TCC7 1-542): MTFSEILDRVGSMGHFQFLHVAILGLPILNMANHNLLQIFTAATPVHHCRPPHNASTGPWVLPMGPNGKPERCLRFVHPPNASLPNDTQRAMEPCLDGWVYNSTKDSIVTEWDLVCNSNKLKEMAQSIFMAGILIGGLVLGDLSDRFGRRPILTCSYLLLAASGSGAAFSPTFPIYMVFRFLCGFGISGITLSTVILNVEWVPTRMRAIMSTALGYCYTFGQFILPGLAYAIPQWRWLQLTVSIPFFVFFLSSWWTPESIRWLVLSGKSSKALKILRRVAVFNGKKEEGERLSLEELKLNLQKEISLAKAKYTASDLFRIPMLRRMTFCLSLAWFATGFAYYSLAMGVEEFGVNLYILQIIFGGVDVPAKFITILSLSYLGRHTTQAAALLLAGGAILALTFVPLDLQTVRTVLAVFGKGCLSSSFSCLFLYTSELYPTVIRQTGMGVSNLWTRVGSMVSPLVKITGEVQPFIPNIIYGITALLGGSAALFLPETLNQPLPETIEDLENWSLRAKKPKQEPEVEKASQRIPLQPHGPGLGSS
# [7] = more modest effects, clinical; cited from earlier work
# [8] = cited from earlier work
# [9] = clinical plasma concentration; cited from earlier work
# OCT2 [10] = biological target: T2, OCT2; experiment: Inhibition of OCT2-dependent metformin transport; assay type: cell-based
# [11] = most prominent effects, clinical; cited from earlier work
# MATE1 [12] = settings: read-out: Ki MATE1; cited from earlier work
# MATE2-K [13] = settings: read-out: Ki MATE2-K; cited from earlier work
# Chain of MATE2-K (Homo sapiens, UniProt Q86VL8) (Q86VL8 1-566 isoform Q86VL8-3): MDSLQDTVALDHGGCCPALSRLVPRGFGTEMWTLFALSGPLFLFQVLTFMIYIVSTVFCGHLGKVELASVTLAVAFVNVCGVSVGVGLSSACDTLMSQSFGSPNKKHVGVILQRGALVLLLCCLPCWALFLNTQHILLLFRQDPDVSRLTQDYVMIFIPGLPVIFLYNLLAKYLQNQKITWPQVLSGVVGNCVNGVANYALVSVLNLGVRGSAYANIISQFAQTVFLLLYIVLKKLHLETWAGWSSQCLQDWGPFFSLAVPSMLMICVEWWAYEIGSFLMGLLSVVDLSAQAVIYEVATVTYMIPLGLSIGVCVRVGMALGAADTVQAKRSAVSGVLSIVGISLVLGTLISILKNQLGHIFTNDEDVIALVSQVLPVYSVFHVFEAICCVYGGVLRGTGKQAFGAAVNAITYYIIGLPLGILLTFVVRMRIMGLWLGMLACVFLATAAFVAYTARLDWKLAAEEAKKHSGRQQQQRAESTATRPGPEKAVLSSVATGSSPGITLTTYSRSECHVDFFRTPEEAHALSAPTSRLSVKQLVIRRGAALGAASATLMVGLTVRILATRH
IC50 (OAT2) [nM],IC50 (OCT2 [1]) [nM],IC50 (OCT3) [nM],IC50 (MATE1 [2]) [nM],IC50 (MATE2-K [3]) [nM],IC50 (MATE1 [4]) [nM],Increase in cobicistat accumulation in cells transfected with OCT2 (OCT2 [5]) [fold],Inhibitor-sensitive accumulation in cells transfected with OAT3 (OAT3),IC50 (OCT2 [10]) [nM],Structure (SMILES),Concentration-dependent inhibition of OCT3-dependent transport (OCT3),Transporter-dependent uptake in primary proximal tubule cells [6],Serum creatinine increases [7] [mg/dL],Maximum plasma concentration ([8]; clinical) [µmol/L],Renal elimination ([8]; in humans),Bound to plasma proteins [9],"Concentration-dependent inhibition of OAT2-dependent transport (OAT2; model substrate, curve could not be generated)",Decreases in creatinine clearance [11],Ki (MATE1 [12]) [nM],Ki (MATE2-K [13]) [nM]
> 100000,24000 ± 4600,> 100000,1870 ± 220,33500 ± 4200,990,2.9,no inhibitor-sensitive accumulation,,"CC(C)c1nc(CN(C)C(=O)N[C@@H](CCN2CCOCC2)C(=O)N[C@H](CC[C@H](Cc2ccccc2)NC(=O)OCc2cncs2)Cc2ccccc2)cs1 [Cobicistat, cobicistat]",lack of concentration-dependent inhibition,small but reproducible decreases in accumulation in the presence of the transport inhibitors cimetidine or probenecid,~0.1,1.4,approximately 8%,over 90%,,,,
> 100000,66 ± 3,> 100000,4670 ± 1110,> 100000,,,,110,"C[C@@H]1CCO[C@H]2Cn3cc(C(=O)NCc4ccc(F)cc4F)c(=O)c(O)c3C(=O)N12 [Dolutegravir, dolutegravir]",lack of concentration-dependent inhibition,,~0.1,,,,lack of concentration-dependent inhibition,,,
,,,,,,,,,"CCc1nc(N)nc(N)c1-c1ccc(Cl)cc1 [Pyrimethamine, pyrimethamine]",,,,,,,,15–34 ml/min per 1.73 m^2,93,59
